In ChEMBL document CHEMBL5728837, “Non-fused tricyclic compounds” (2021):

Test: YAP Reporter Assay: HEK293T cells stably transfected with 8XTBD luciferase reporter and pRLTK in 384-well plates were treated with the test compounds, starting from 3 μM (final concentration in assay plate), 1:3 dilution, and 10 points in quadruplicates. Post 24-hr incubation with compounds at 37° C. and 5% CO2, cells were lysed and 8XTBD-driven firefly luciferase and control TK-driven renilla luciferase activities were measured using Promega Dual-Luciferase Reporter Assay System.Reagents: The reagents used for this study are: DMEM: Invitrogen #11960077, Dual-Glo Luciferase Assay System: Promega-E2980, Puromycin Dihydrochloride: Invitrogen-A1113803, 384-well plate: PerkinElmer-6007480, L-GLUTAMINE: Invitrogen-25030164, Hygromycin B: Invitrogen-10687010, and Penicillin-Streptomycin: Merk-TMS-AB2-CMedia: The media used for this assay were: Culture Medium: DMEM+1 ug/mL puromycin+200 ug/mL hygromycin (with 10% FBS+1 mM L-glutamine); and Assay Medium: DMEM (with 10% FBS+1 mM L-glutamine+1× P/S).Cell Plating: The appropriate media was warmed at 37° C. by water bath: Culture Medium, Assay Medium, 1*D-PBS, 0.05% trypsin-EDTA. The cells were trypsinized after removing all media, then washed with 1*sterile D-PBS and then with 2 ml 0.05% trypsin-EDTA. The cells were then incubated at RT for one minute. Then 10 ml/75 cm2 flask Assay Medium was added to each flask. Using a 10 ml pipette, the cells were then gently resuspended in the media, until the clumps completely disappeared. The cells were then transferred into 50 ml centrifuge tubes and were centrifuged at 800 rpm for 5 mins. The medium was removed and the cells were resuspended with Assay Medium. An aliquot of cells was used to count the cell density (cells/nil). The cell suspension was then diluted with Assay Medium to a concentration of 6×10^4 cells/ml. 50 ul cells suspension was then plated to 384-well plate (PerkinElmer-6007480), 3×10^3 cells/well and the cells were incubated in an incubator at 37° C., 5% CO2.Compound Treatment: In the afternoon (incubation of the plate with 3-4 hrs), the test compounds were added by Echo, starting from 3 uM (final concentration in the assay plate), 1:3 dilution, 10 points, quadruplicates. The plate was placed at 37° C., 5% CO2 incubator for 24 hrs.Detection: The Dual-Glo Luciferase Reagent was prepared by transferring the contents of one bottle of Dual-Glo Luciferase Buffer to one bottle of Dual-Glo Luciferase Substrate to create the Dual-Glo Luciferase Reagent. Mixing was performed by inversion until the substrate was thoroughly dissolved. After mixing, the reagent was aliquoted into 15 ml tubes. In the afternoon (24 hrs post compound treatment), the DMEM+ medium in the 384 well plates were aspirated by Microplate Washer.Measuring firefly luciferase activity: 20 ul Dual-Glo Luciferase Reagent was added to the 384-well plates. The plates were protected from light to prevent interference with the assay. The plates were shaken for 1 min followed centrifuging plates at 1000 rpm for 30 seconds. After waiting at least 10 minutes, the firefly luminescence was measured by Envision.Measuring renilla luciferase activity: 20 ul Stop-Glo Reagent was added to the 384-well plates. The plates were shaken for lmin and then centrifuged at 1000 rpm for 30 seconds. After waiting at least 10 minutes, the renilla luminescence was measured by Envision.
Settings: HEK-293T, 24 h

| Compound | IC50 |
| --- | --- |
| FC(F)(F)OCCn1nnc(-c2ccccc2Nc2ccc(C(F)(F)F)cc2)n1 | in the range around 550 nM |
| O[C@H]1CNC[C@@H]1n1nnc(-c2ccccc2Nc2ccc(C(F)(F)F)cc2)n1 | in the range around 550 nM |
| OC1(Cn2nnc(-c3ccccc3Nc3ccc(C(F)(F)F)cc3)n2)COC1 | < 100 nM |
| OC1(Cn2nnc(-c3ccccc3Nc3ccc(C(F)(F)F)cc3)n2)CSC1 | < 100 nM |
| FC(F)(F)c1ccc(Nc2ccccc2-c2nnn(C3CCNC3)n2)cc1 (centres undefined) | in the range around 550 nM |
| OCCn1nnc(-c2c(F)cccc2Nc2ccc(C(F)(F)F)cc2)n1 | < 100 nM |
| COc1ccc(-c2nnn(CCO)n2)c(Nc2ccc(C(F)(F)F)cc2)c1 | < 100 nM |
| FC(F)(F)c1ccc(Nc2ccccc2-c2nnn(CCOC3CCNCC3)n2)cc1 | in the range around 550 nM |
| OCCn1nnc(-c2ccccc2Nc2ccc(Cl)c(Cl)c2)n1 | in the range around 550 nM |
| OCCn1nnc(-c2cc(Cl)ccc2Nc2ccc(C(F)(F)F)cc2)n1 | < 100 nM |
| OCCn1nnc(-c2ccccc2Nc2ccc(Cl)cc2)n1 | in the range around 550 nM |
| FC(F)(F)c1ccc(Nc2ccccc2-c2nnn(-c3cccnc3)n2)cc1 | in the range around 3000 nM |
| [O-][S+]1CC(O)(Cn2nnc(-c3ccccc3Nc3ccc(C(F)(F)F)cc3)n2)C1 (centres undefined) | in the range around 550 nM |
| CCOC(=O)Cn1cnc(-c2ccccc2Nc2ccc(C(F)(F)F)cc2)c1 | in the range around 550 nM |
| OCCn1nnc(-c2ccc(F)cc2Nc2ccc(C(F)(F)F)cc2)n1 | < 100 nM |
| [N-]=[N+]=Nc1ccc(Nc2ccccc2-c2nnn(CCO)n2)cc1 | in the range around 550 nM |
| FC(F)(F)c1ccc(Nc2ccccc2-c2nnn(CC3CCC3)n2)cc1 | in the range around 550 nM |
| OCCn1nnc(-c2cc(F)ccc2Nc2ccc(C(F)(F)F)cc2)n1 | < 100 nM |
| OCCn1nnc(-c2cc(C3CC3)ccc2Nc2ccc(C(F)(F)F)cc2)n1 | < 100 nM |
| O[C@H]1CCC[C@H]1n1nnc(-c2ccccc2Nc2ccc(C(F)(F)F)cc2)n1 | < 100 nM |
| OC1(Cn2nnc(-c3ccccc3Nc3ccc(C(F)(F)F)cc3)n2)CCCNC1 (centres undefined) | in the range around 550 nM |
| O[C@@H]1CNC[C@H]1n1nnc(-c2ccccc2Nc2ccc(C(F)(F)F)cc2)n1 | in the range around 550 nM |
| O[C@@H]1CCC[C@@H]1n1nnc(-c2ccccc2Nc2ccc(C(F)(F)F)cc2)n1 | in the range around 550 nM |
| OC1(Cn2nnc(-c3ccccc3Nc3ccc(C(F)(F)F)cc3)n2)CCN(c2ccccc2)C1 (centres undefined) | in the range around 3000 nM |
| FC(F)(F)c1ccc(Nc2ccccc2-c2nnn(C3CNC3)n2)cc1 | in the range around 3000 nM |

| Compound | IC50 |
| --- | --- |
| OCCn1nnc(-c2ccccc2Nc2cc(Cl)c(Cl)c(Cl)c2)n1 | in the range around 3000 nM |
| OCCn1nnc(-c2ccccc2Nc2ccc(C(F)(F)F)c(Cl)c2)n1 | < 100 nM |
| OCCn1nnc(-c2cc(OC(F)(F)F)ccc2Nc2ccc(C(F)(F)F)cc2)n1 | in the range around 550 nM |
| OC1(Cn2nnc(-c3ccccc3Nc3ccc(C(F)(F)F)cc3)n2)CNC1 | in the range around 550 nM |
| CC(=O)N1CCCC(O)(Cn2nnc(-c3ccccc3Nc3ccc(C(F)(F)F)cc3)n2)C1 (centres undefined) | in the range around 550 nM |
| CCc1ccc(Nc2ccc(C(F)(F)F)cc2)c(-c2nnn(CCO)n2)c1 | < 100 nM |
| O=C1NCC(Cn2nnc(-c3ccccc3Nc3ccc(C(F)(F)F)cc3)n2)N1 (centres undefined) | in the range around 550 nM |
| CC(=O)OC1(CN2N=C(c3ccccc3Nc3ccc(C(F)(F)F)cc3)NN2)CN(C(C)=O)C1 | in the range around 3000 nM |
| OCCn1nnc(-c2cccc(F)c2Nc2ccc(C(F)(F)F)cc2)n1 | < 100 nM |
| O=C1NC(Cn2nnc(-c3ccccc3Nc3ccc(C(F)(F)F)cc3)n2)CO1 (centres undefined) | in the range around 550 nM |
| CC(=O)N1CC(O)(Cn2nnc(-c3ccccc3Nc3ccc(C(F)(F)F)cc3)n2)C1 | in the range around 550 nM |
| OC1(Cn2nnc(-c3ccccc3Nc3ccc(C(F)(F)F)cc3)n2)CCCN(c2ccccc2)C1 (centres undefined) | in the range around 550 nM |
| COC1CCCC1n1nnc(-c2ccccc2Nc2ccc(C(F)(F)F)cc2)n1 (centres undefined) | in the range around 550 nM |
| OCCn1nnc(-c2cc(OC(F)F)ccc2Nc2ccc(C(F)(F)F)cc2)n1 | < 100 nM |
| OCCn1nnc(-c2cc(C(F)(F)F)ccc2Nc2ccc(C(F)(F)F)cc2)n1 | in the range around 550 nM |
| CC(=O)N1CCC(O)(Cn2nnc(-c3ccccc3Nc3ccc(C(F)(F)F)cc3)n2)C1 (centres undefined) | in the range around 550 nM |
| OCCn1nnc(-c2ccccc2Nc2cccc(Cl)c2)n1 | in the range around 3000 nM |
| COc1ccc(Nc2ccc(C(F)(F)F)cc2)c(-c2nnn(CCO)n2)c1 | < 100 nM |
| FC(F)(F)c1ccc(Nc2ccccc2-c2nnn(C3COCOC3)n2)cc1 | < 100 nM |
| OCCn1nnc(-c2ccc(Cl)cc2Nc2ccc(C(F)(F)F)cc2)n1 | < 100 nM |
| OCCn1nnc(-c2cc(C(F)F)ccc2Nc2ccc(C(F)(F)F)cc2)n1 | in the range around 550 nM |
| OCCn1nnc(-c2ccccc2Nc2ccc(Br)cc2)n1 | in the range around 550 nM |
| FC(F)(F)c1ccc(Nc2ccccc2-c2nnn(CC3COC3)n2)cc1 | in the range around 550 nM |
| O=C1N[C@H](Cn2nnc(-c3ccccc3Nc3ccc(C(F)(F)F)cc3)n2)CO1 | in the range around 550 nM |
| OCCn1nnc(-c2cc(Br)ccc2Nc2ccc(C(F)(F)F)cc2)n1 | < 100 nM |

The remaining lines, values ahead:

| IC50 | Compound |
| --- | --- |
| < 100 nM | C[C@@H](O)[C@H](C)n1nnc(-c2ccccc2Nc2ccc(C(F)(F)F)cc2)n1 |
| in the range around 550 nM | CNCCn1nnc(-c2ccccc2Nc2ccc(C(F)(F)F)cc2)n1 |
| in the range around 3000 nM | Cn1nc(-c2ccccc2Nc2ccc(C(F)(F)F)cc2)nc1CCO |
| < 100 nM | C[C@H](O)[C@H](C)n1nnc(-c2ccccc2Nc2ccc(C(F)(F)F)cc2)n1 |
| in the range around 550 nM | FC(F)OCCn1nnc(-c2ccccc2Nc2ccc(C(F)(F)F)cc2)n1 |
| in the range around 3000 nM | CNCCCn1nnc(-c2ccccc2Nc2ccc(C(F)(F)F)cc2)n1 |
| in the range around 550 nM | NCC(CO)n1nnc(-c2ccccc2Nc2ccc(C(F)(F)F)cc2)n1 (centres undefined) |
| < 100 nM | CO[C@@H](C)[C@H](C)n1nnc(-c2ccccc2Nc2ccc(C(F)(F)F)cc2)n1 |
| < 100 nM | Cc1ccc(Nc2ccc(C(F)(F)F)cc2)c(-c2nnn(CCO)n2)c1 |
| < 100 nM | C[C@H](O)[C@@H](C)n1nnc(-c2ccccc2Nc2ccc(C(F)(F)F)cc2)n1 |
| < 100 nM | C[C@H]([C@@H](C)O)n1nnc(-c2ccccc2Nc2ccc(C(F)(F)F)cc2)n1 |
| in the range around 3000 nM | Cn1nc(-c2ccccc2Nc2ccc(C(F)(F)F)cc2)cc1CCO |
| < 100 nM | COCCn1nnc(-c2ccccc2Nc2ccc(C(F)(F)F)cc2)n1 |
| in the range around 550 nM | CO[C@H](C)[C@@H](C)n1nnc(-c2ccccc2Nc2ccc(C(F)(F)F)cc2)n1 |
| in the range around 550 nM | NCCCn1nnc(-c2ccccc2Nc2ccc(C(F)(F)F)cc2)n1 |
| in the range around 550 nM | Cn1nnc(-c2ccccc2Nc2ccc(C(F)(F)F)cc2)n1 |
| < 100 nM | OC1(Cn2nnc(-c3ccccc3Nc3ccc(C(F)(F)F)cc3)n2)CCC1 |
| in the range around 3000 nM | CC(CO)c1nc(-c2ccccc2Nc2ccc(C(F)(F)F)cc2)nn1C (centres undefined) |
| < 100 nM | CO[C@@H](C)[C@@H](C)n1nnc(-c2ccccc2Nc2ccc(C(F)(F)F)cc2)n1 |
| in the range around 550 nM | CO[C@H](C)[C@H](C)n1nnc(-c2ccccc2Nc2ccc(C(F)(F)F)cc2)n1 |
| in the range around 550 nM | NCCn1cnc(-c2ccccc2Nc2ccc(C(F)(F)F)cc2)n1 |
| < 100 nM | OCC(CO)n1nnc(-c2ccccc2Nc2ccc(C(F)(F)F)cc2)n1 |
| < 100 nM | OC1(Cn2nnc(-c3ccccc3Nc3ccc(C(F)(F)F)cc3)n2)CC1 |
| in the range around 550 nM | OCCn1nnc(-c2ccccc2Nc2ccc(SC(F)(F)F)cc2)n1 |
| in the range around 550 nM | CC(N)Cn1nnc(-c2ccccc2Nc2ccc(C(F)(F)F)cc2)n1 (centres undefined) |
| < 100 nM | CC(CN)n1nnc(-c2ccccc2Nc2ccc(C(F)(F)F)cc2)n1 (centres undefined) |
| in the range around 550 nM | NCCn1nnc(-c2ccccc2Nc2ccc(C(F)(F)F)cc2)n1 |
| in the range around 550 nM | OCCn1cnc(-c2ccccc2Nc2ccc(C(F)(F)F)cc2)c1 |
| < 100 nM | Cc1ccc(-c2nnn(CCO)n2)c(Nc2ccc(C(F)(F)F)cc2)c1 |
